Test system: Saccharomyces cerevisiae ABC16-Green Monster
Assay: growth inhibition at single dose (up to 150 µM), below the 70% cut-off for dose-response; higher = more potent
Conditions: 18 h; 30 °C; YPD
In short: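 Percent growth inhibition is the reported value. Drug-sensitive S. cerevisiae ABC16-Green Monster cultures in log phase (OD600 0.1–0.2), 200 µl per well in 96-well plates, received each library compound once at 150 µM in biological duplicates, with untreated cultures run alongside. Growth was followed by OD600 at 0 h and after 18 h at 30 °C. Dose-response was not done for compounds below 70% in both replicates.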

| Structure (SMILES) | growth inhibition at single dose |
| --- | --- |
| O=C(Nc1ccc(N2CCCC2)cn1)C1CC=CCC1 (configuration not stated) | < 70% |
| Cc1ccc(Nc2nccc(C(F)(F)F)n2)cc1S(=O)(=O)N(C)C | < 70% |
| O=C(O)C1Cc2c([nH]c3ccccc23)C(c2ccc(Cl)cc2Cl)N1 (configuration not stated) | < 70% |
| COc1cc2c3cc1Oc1c(OC)c(OC)cc4c1C(Cc1ccc(O)c(c1)Oc1ccc(cc1)CC3N(C)CC2)N(C)CC4 (configuration not stated) | < 70% |
| Cc1ccnc(NC(c2cccc(OCc3ccccc3)c2)c2ccc3cccnc3c2O)c1 (configuration not stated) | < 70% |
| COc1ccccc1OCCCCn1c(C2CC2)nc2ccccc21 | < 70% |
| c1ccc(Oc2ccc(-c3cc(N4CCOCC4)[nH]n3)cc2)cc1 | < 70% |
| CCOC(=O)c1c(C)n(-c2ccccc2)c2ccc(OC(=O)c3cc(OC)c(OC)c(OC)c3)cc12 | < 70% |
| Cc1cccc(N2C(=O)C3C(C2=O)C2(c4ccccc4)C(=O)C3(c3ccccc3)C(c3ccc4c(c3)OCO4)=C2c2ccc3c(c2)OCO3)c1 (configuration not stated) | < 70% |
| CN(c1ccccc1)S(=O)(=O)c1ccc(NC(=O)c2cccs2)cc1 | < 70% |
| FC(F)(F)c1cccc(Nc2nc(-c3ccccc3)nc3ncccc23)c1 | < 70% |
| O=C(NC1CCN(c2ccc(S(=O)(=O)C(F)(F)F)cc2)CC1)C1CC1 | < 70% |
| Cc1ccc(CN2CCC(C(=O)Nc3ccc(-c4cc5ccccc5[nH]4)cc3)CC2)o1 | < 70% |
| COc1ccccc1N1C(=N)SC(=Cc2ccc(OCc3ccccc3F)cc2)C1=O | < 70% |
| O=C(Nc1nnc(S)s1)c1cc(Br)ccc1Cl | < 70% |
| CN(C)Cc1nc(=O)c2c([nH]1)-c1ccccc1CC2(C)C | < 70% |
| COc1ccc(-c2nn(C(C)C)c3ncnc(N)c23)cc1OC | < 70% |
| CNC(=O)CNc1nc(-c2ccccn2)nc2scc(-c3ccccc3)c12 | < 70% |
| O=C(CN1CCOCC1)Nc1ccc2ncnc(Nc3ccc(OCc4cccc(F)c4)c(Cl)c3)c2c1 | < 70% |

| Structure (SMILES) | growth inhibition at single dose |
| --- | --- |
| O=C(NC1CCCCC1)C(c1cccs1)N(CCc1ccccc1)C(=O)c1ccco1 (configuration not stated) | < 70% |
| COc1ccc(OC)c(NCc2ccc3nc(N)nc(N)c3c2Cl)c1 | < 70% |
| N#Cc1ccsc1NC(=O)CN1CCN(CC(=O)Nc2ccc(Cl)c(C(F)(F)F)c2)CC1 | < 70% |
| COc1ccc(C2=NN(C3CCCCCC3)C(=O)C2(C)C)cc1OCCCCOc1ccc(-c2nn[nH]n2)cc1 | < 70% |
| CNc1snc(C)c1C(=O)NC(C)c1ccc(C(C)C)cc1 (configuration not stated) | < 70% |
| CC(C)(CN)c1nc(-c2ccc(Cl)c(O)c2)c(-c2ccnc(N)n2)[nH]1 | < 70% |
| Cc1nn(-c2ccccc2)c(Oc2ccccc2)c1/C=C1\C(=O)Nc2ccccc21 | < 70% |
| COc1ccc(CN2CCCC(C(=O)c3ccc(C(F)(F)F)cc3)C2)c(O)c1 (configuration not stated) | < 70% |
| O=C(Nc1ccc(-c2nc3cc4ccccc4cc3[nH]2)cc1)c1cccc(Br)c1 | < 70% |
| CCn1nnnc1Sc1nc(C)nc2sc3c(c12)CCC3 | < 70% |
| CCn1nc(C)c(Sc2nccn2C)c1C | < 70% |
| Cc1c(-c2ccccc2)sc2[nH]c(CC(N)=O)nc(=O)c12 | < 70% |
| Cc1cc(NC(=O)c2cccc(C(F)(F)F)c2)n(-c2nc(-c3ccc4c(c3)OCO4)cs2)n1 | < 70% |
| CCOc1c(Br)cc(C2C(C(=O)OC)=CN(C)C=C2C(=O)OC)cc1OC | < 70% |
| Cc1cccc(C2CC(=O)c3cnn(-c4nc(C)cc(C)n4)c3C2)c1 (configuration not stated) | < 70% |
| Oc1ccc(Br)cc1CN1CCN(Cc2ccc(Cl)cc2)CC1 | < 70% |
| CCOc1ccccc1NC(C)C(=O)Nc1cc(C(F)(F)F)ccc1N1CCOCC1 (configuration not stated) | < 70% |
| CC(C)c1ccc2cc(C(=O)Nc3ccc4c(c3)NC(=O)CO4)[nH]c2c1 | < 70% |

From the supplement of paper PMC8837787
